We go through 35 molecules from patent US11124509B2, “Tri-substituted imidazoles for the inhibition of TGF beta and methods of treatment” (CLAVIUS PHARMACEUTICALS, LLC, priority 2017, dated 2021).

One assay has as its target TGFBR1 (ALK5) (Homo sapiens (Human), UniProt P36897). In words: LanthaScreen Eu Kinase Binding Assay TGFBR1 (ALK5) (ThermoFisher SelectScreen). The following applies: read-out: TβRI (ALK5) Binding IC50. As to the method: (§1) Exemplified compounds were confirmed to inhibit ALK5 activity in enzyme and cellular assays in the following assay systems conducted by ThermoFisher in Madison, Wis. according to their commercially available protocols.
ThermoFisher SelectScreen™ Biochemical Kinase Profiling Service, LanthaScreen™Eu Kinase Binding Assay TGFBR1 (ALK5)
Exemplified compounds were screened in 1% DMSO (final concentration) by 3-fold serial dilutions from 10,000 nM to 0.316 nM to produce an IC50 or at single concentrations of 10,000, 1000 and 100 nM according to the following protocol. To low volume, white 384-well plates (Greiner Cat #784207) add 160 nL 100× compound in 100% DMSO, 3.84 uL kinase buffer (50 mM HEPES, pH 7.5, 0.01% BRIJ-35, 10 mM MgCl2, 1 mM EGTA), 8 uL 2× kinase/antibody mixture in kinase buffer (final ALK5 concentration of 5 nM; final Eu-anti-GST antibody concentration of 2 nM), 4 uL 4× Tracer #178 in kinase buffer (final concentration of 5 nM). Gently shake the plates for 30 seconds and incubate at room temperature for 1 hour before reading fluorescence on a plate reader. Percent inhibition was determined compared to DMSO only control (maximal ALK5 tracer binding) and sigmoidal dose response curve fit yielded IC50 values as indicated in Table 2.
(In TR-FRET formats the signal depends on donor and acceptor labels being close together.)

The test system of assay [1] is TGF-beta 1 stimulated SBE-b1a HEK 293T cells. As to the kind of experiment: GeneBLAzer beta-lactamase reporter, TGF-beta 1 stimulated SBE-b1a HEK 293T cell-based assay (ThermoFisher SelectScreen). Conditions: TGF-beta 1 0.03 nM, 5 hours, inhibitor 10,000 nM to 0.316 nM, sigmoidal dose response curve fit, read-out: Cells (SBE_HEK293T) IC50. As to the method: as §1
ThermoFisher SelectScreen™ Cell-Based Pathway Profiling Service GeneBLAzer Beta-Lactamase (b1a) Reporter Technology—TGF-Beta 1 Stimulated SBE-b1a HEK 293T Cell-Based Assay
SBE-b1a HEK 293T cells were thawed and re-suspended in Assay Media (OPTI-MEM, 0.5% dialyzed FBS, 0.1 mM NEAA, 1 mM Sodium Pyruvate, 100 U/mL/100 μg/mL Pen/Strep) to a concentration of 625,000 cells/mL. 32 μL of cell suspension (20,000 cells) was added to each well of a 384-well Poly-D-Lysine assay plate. Cells in Assay Media were incubated for 16-24 hours in the plate at 37° C./5% CO2 in a humidified incubator. 4 μL of a 10× serial dilution of ALK5 inhibitors (10x=100,000-3.16 nM) was added to appropriate wells of the plate and pre-incubated at 37° C./5% CO2 in a humidified incubator with cells for 30 minutes. Final concentration of inhibitor ranged from 10,000 nM to 0.316 nM. 4 μL of 10× TGF-beta 1 (final concentration of 0.03 nM) was added to wells containing the inhibitors. The plate was incubated for 5 hours at 37° C./5% CO2 in a humidified incubator. 8 μL of 1 μM Substrate Loading Solution was added to each well and the plate was incubated for 2 hours at room temperature before being read on a fluorescence plate reader. Percent inhibition was determined compared to DMSO only control (maximal TGF-beta 1 stimulation) and sigmoidal dose response curve fit yielded IC50 values as indicated in Table 2.

Where [2] appears, read: compounds marked with an asterisk: evaluated at three concentrations, IC50 depicted as less than the lowest concentration producing >50% inhibition.
The mark [3] stands for this setting: 3-fold serial dilutions 10,000 nM to 0.316 nM, ALK5 5 nM, Tracer #178 5 nM, sigmoidal dose response curve fit.

One may read the IC50 as the concentration that gives 50% inhibition.

Where a name gives a salt, the structure may show the parent alone. Read-outs that look alike come from different tables or passages of the source.

Sequence of TGFBR1 (ALK5) (P36897 34-503): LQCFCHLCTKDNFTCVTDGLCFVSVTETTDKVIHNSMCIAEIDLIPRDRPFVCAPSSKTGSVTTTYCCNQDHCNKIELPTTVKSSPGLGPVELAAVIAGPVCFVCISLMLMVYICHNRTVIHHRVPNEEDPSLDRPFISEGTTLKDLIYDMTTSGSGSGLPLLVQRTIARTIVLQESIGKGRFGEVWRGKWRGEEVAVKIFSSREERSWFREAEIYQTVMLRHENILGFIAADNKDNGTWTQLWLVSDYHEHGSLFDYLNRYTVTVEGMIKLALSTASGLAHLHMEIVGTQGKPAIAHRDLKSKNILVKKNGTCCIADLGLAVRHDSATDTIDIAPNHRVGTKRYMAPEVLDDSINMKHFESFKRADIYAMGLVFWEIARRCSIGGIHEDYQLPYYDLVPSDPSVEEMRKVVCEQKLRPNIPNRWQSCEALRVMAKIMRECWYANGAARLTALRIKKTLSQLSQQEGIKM

Turning to `Cn1ccc(-c2nc(-c3ccc(C#N)cc3)[nH]c2-c2ccc3nccnc3c2)n1` [Compound 42], the IC50 at TGFBR1 (ALK5) (setting [2]) is less than 1000 nM.
Regarding `Cn1ccc(-c2nc(-c3ccc(C(N)=O)cc3)[nH]c2-c2ccc3nccnc3c2)n1` [Compound 43], the half-inhibitory concentration (IC50) in assay [1] (Homo sapiens, HEK-293T) is 485 nM; at TGFBR1 (ALK5) (setting [2]), less than 100 nM.
As to `CC(C)n1ccc(-c2nc(CNc3cccc(F)c3)[nH]c2-c2ccc3ncc(C#N)n3n2)n1` [Compound 27], at TGFBR1 (ALK5) (setting [2]), the IC50 is less than 100 nM.
In the case of `CC(C)n1ccc(-c2nc(CNc3cccc(C#N)c3)[nH]c2-c2ccc3nccnc3c2)n1` [Compound 41], the IC50 in assay [1] (Homo sapiens, HEK-293T) was found to be 77.5 nM; at TGFBR1 (ALK5) (setting [3]), 33 nM.
Regarding `CC(C)n1ccc(-c2nc(CNc3cc(F)cc(C#N)c3)[nH]c2-c2ccc3nccnc3c2)n1` [Compound 50], the IC50 in assay [1] (Homo sapiens, HEK-293T) amounted to 1070 nM.
As for `CNC(=O)c1ccc(-c2nc(-c3ccn(C)n3)c(-c3ccc4ncsc4c3)[nH]2)cc1` [Compound 64, 4-(5-(benzo[d]thiazol-6-yl)-4-(1-methyl-1H-pyrazol-3-yl)-1H-imidazol-2-yl)-N-methylbenzamide], the IC50 came to 632 nM in assay [1] (Homo sapiens, HEK-293T) and 44.6 nM on TGFBR1 (ALK5) (setting [3]).
Turning to `CC(C)n1ccc(-c2nc(-c3ccc(C(N)=O)cc3)[nH]c2-c2ccc3nccnc3c2)n1` [Compound 59], the half-inhibitory concentration (IC50) on TGFBR1 (ALK5) (setting [3]) stood at 889 nM.
With `CC(C)n1ccc(-c2nc(CNc3cc(F)ccc3F)[nH]c2-c2ccc3nccnc3c2)n1` [Compound 45], the IC50 in assay [1] (Homo sapiens, HEK-293T) is 323 nM; on TGFBR1 (ALK5) (setting [2]) it was less than 100 nM.
With `Cn1ccc(-c2nc(CNc3ccc(Cl)cc3)[nH]c2-c2ccc3ncnn3c2)n1` [Compound 12, N-((5-([1,2,4]triazolo[1,5-a]pyridin-6-yl)-4-(1-methyl-1H-pyrazol-3-yl)-1H-imidazol-2-yl)methyl)-4-chloroaniline hydrochloride], in assay [1] (Homo sapiens, HEK-293T), the IC50 is greater than 10000 nM.
Consider `Cn1ccc(-c2nc(CNc3ccccc3F)[nH]c2-c2ccc3ncccc3c2)n1` [Compound 31, 2-fluoro-N-((4-(1-methyl-1H-pyrazol-3-yl)-5-(quinolin-6-yl)-1H-imidazol-2-yl)methyl)aniline hydrochloride], for which the IC50 in assay [1] (Homo sapiens, HEK-293T) is 8930 nM; on TGFBR1 (ALK5) (setting [2]), less than 1000 nM.
The corresponding values for `Cn1ccc(-c2nc(CNc3cccc(F)c3)[nH]c2-c2ccc3ncccc3c2)n1` [Compound 24] are 1930 nM and less than 200 nM.
Regarding `Cn1ccc(-c2nc(CNc3ccccc3)[nH]c2-c2ccc3ncnn3c2)n1` [Compound 4, N-((5-([1,2,4]triazolo[1,5-a]pyridin-6-yl)-4-(1-methyl-1H-pyrazol-3-yl)-1H-imidazol-2-yl)methyl)aniline hydrochloride], the IC50 was greater than 10000 nM in assay [1] (Homo sapiens, HEK-293T) and 1370 nM at TGFBR1 (ALK5) (setting [3]).
Consider `CC(C)n1ccc(-c2nc(CNc3cccc(C#N)c3)[nH]c2-c2ccc3ncc(C(N)=O)n3n2)n1` [Compound 38], for which the 50% inhibitory concentration (IC50) in assay [1] (Homo sapiens, HEK-293T) is 3180 nM; at TGFBR1 (ALK5) (setting [2]), less than 100 nM.
As to `Cn1ccc(-c2nc(-c3ccc(C(N)=O)cc3)[nH]c2-c2ccc3c(c2)OCO3)n1` [Compound 67], the half-maximal inhibitory concentration (IC50) at TGFBR1 (ALK5) (setting [3]) was 50 nM.
Turning to `Cn1ccc(-c2nc(CNc3cccc(C#N)c3)[nH]c2-c2ccc3ncnn3c2)n1` [Compound 16, 3-(((5-([1,2,4]triazolo[1,5-a]pyridin-6-yl)-4-(1-methyl-1H-pyrazol-3-yl)-1H-imidazol-2-yl)methyl)amino)benzonitrile hydrochloride], the IC50 is 3570 nM in assay [1] (Homo sapiens, HEK-293T) and less than 1000 nM on TGFBR1 (ALK5) (setting [2]).
In the case of `CC(C)n1ccc(-c2nc(CNc3cccc(F)c3)[nH]c2-c2ccc3nccnc3c2)n1` [Compound 22, 3-fluoro-N-((4-(1-isopropyl-1H-pyrazol-3-yl)-5-(quinoxalin-6-yl)-1H-imidazol-2-yl)methyl)aniline hydrochloride], the IC50 in assay [1] (Homo sapiens, HEK-293T) is 1090 nM; at TGFBR1 (ALK5) (setting [2]), less than 100 nM.
On to `CC(C)n1ccc(-c2nc(CNc3cccc(C#N)c3)[nH]c2-c2ccc3ncnn3c2)n1` [Compound 28], for which the IC50 was 757 nM in assay [1] (Homo sapiens, HEK-293T) and less than 100 nM on TGFBR1 (ALK5) (setting [2]).
As for `CC(C)n1ccc(-c2nc(CNc3ccccc3F)[nH]c2-c2ccc3nccnc3c2)n1` [Compound 57], the concentration for half-maximal inhibition (IC50) came out at 2190 nM in assay [1] (Homo sapiens, HEK-293T) and 128 nM on TGFBR1 (ALK5) (setting [3]).
Consider `CC(C)n1ccc(-c2nc(CNc3ccc(Cl)c(Cl)c3)[nH]c2-c2ccc3nccnc3c2)n1` [Compound 51], for which the half-inhibitory concentration (IC50) at TGFBR1 (ALK5) (setting [3]) stood at 260 nM.
For `CC(C)n1ccc(-c2nc(CNc3cccc(F)c3)[nH]c2-c2ccc3ncccc3c2)n1` [Compound 26, 3-fluoro-N-((4-(1-isopropyl-1H-pyrazol-3-yl)-5-(quinolin-6-yl)-1H-imidazol-2-yl)methyl)aniline hydrochloride], on TGFBR1 (ALK5) (setting [2]), the IC50 is less than 100 nM.
On to `Cn1ccc(-c2nc(C(N)=O)[nH]c2-c2ccc3ncsc3c2)n1` [Compound 62, 5-(benzo[d]thiazol-6-yl)-4-(1-methyl-1H-pyrazol-3-yl)-1H-imidazole-2-carboxamide], for which the half-maximal inhibitory concentration (IC50) was 1130 nM in assay [1] (Homo sapiens, HEK-293T) and 45.8 nM on TGFBR1 (ALK5) (setting [3]).
With `CC(C)n1ccc(-c2nc(CNc3cccc(-n4cccn4)c3)[nH]c2-c2ccc3nccnc3c2)n1` [Compound 40], the concentration for half-maximal inhibition (IC50) in assay [1] (Homo sapiens, HEK-293T) was 1050 nM; on TGFBR1 (ALK5) (setting [2]), less than 100 nM.
For the molecule `Cc1nc(-c2ccn(C)n2)c(-c2ccc3ncsc3c2)[nH]1` [Compound 44, 6-(2-methyl-4-(1-methyl-1H-pyrazol-3-yl)-1H-imidazol-5-yl)benzo[d]thiazole], the half-maximal inhibitory concentration (IC50) in assay [1] (Homo sapiens, HEK-293T) was determined as 37.4 nM; on TGFBR1 (ALK5) (setting [3]), 6.66 nM.
For the molecule `Cn1ccc(-c2nc(-c3ccc(C(N)=O)cc3)[nH]c2-c2ccc3ncsc3c2)n1` [Compound 37], the 50% inhibitory concentration (IC50) in assay [1] (Homo sapiens, HEK-293T) worked out at 53.2 nM; on TGFBR1 (ALK5) (setting [3]), 5.6 nM.
Turning to `Fc1cc(F)cc(NCc2nc(-c3ccn(C4CC4)n3)c(-c3ccc4ncnn4c3)[nH]2)c1` [Compound 69], the IC50 on TGFBR1 (ALK5) (setting [3]) was 3 nM.
Consider `Cn1ccc(-c2nc(CNc3ccccc3F)[nH]c2-c2ccc3ncnn3c2)n1` [Compound 2, N-((5-([1,2,4]triazolo[1,5-a]pyridin-6-yl)-4-(1-methyl-1H-pyrazol-3-yl)-1H-imidazol-2-yl)methyl)-2-fluoroaniline hydrochloride], for which the IC50 is greater than 10000 nM in assay [1] (Homo sapiens, HEK-293T) and 1370 nM at TGFBR1 (ALK5) (setting [3]).
For `CCNC(=O)c1ccc(-c2nc(-c3ccn(C)n3)c(-c3ccc4ncsc4c3)[nH]2)cc1` [Compound 65], the IC50 in assay [1] (Homo sapiens, HEK-293T) came to 654 nM; at TGFBR1 (ALK5) (setting [3]), 46.2 nM.
Turning to `CC(C)n1ccc(-c2nc(CNc3cccc(F)c3)[nH]c2-c2ccc3ncnn3c2)n1` [Compound 20, N-((5-([1,2,4]triazolo[1,5-a]pyridin-6-yl)-4-(1-isopropyl-1H-pyrazol-3-yl)-1H-imidazol-2-yl)methyl)-3-fluoroaniline hydrochloride], the IC50 in assay [1] (Homo sapiens, HEK-293T) was 1270 nM; on TGFBR1 (ALK5) (setting [2]) it was less than 100 nM.
As for `CC(C)n1ccc(-c2nc[nH]c2-c2ccc3nccnc3c2)n1` [Compound 53, 6-(4-(1-isopropyl-1H-pyrazol-3-yl)-1H-imidazol-5-yl)quinoxaline hydrochloride], the IC50 on TGFBR1 (ALK5) (setting [2]) is less than 1000 nM.
In the case of `CC(C)n1ccc(-c2nc(CNc3cccc(Cl)c3)[nH]c2-c2ccc3nccnc3c2)n1` [Compound 54], the IC50 in assay [1] (Homo sapiens, HEK-293T) was 211 nM; at TGFBR1 (ALK5) (setting [3]), 31.2 nM.
Consider `CC(C)n1ccc(-c2nc(CNc3ccc(F)c(F)c3)[nH]c2-c2ccc3nccnc3c2)n1` [Compound 48], for which the half-maximal inhibitory concentration (IC50) on TGFBR1 (ALK5) (setting [2]) is less than 100 nM.
In the case of “N-((5-([1,2,4]triazolo[1,5-a]pyridin-6-yl)-4-(1-methyl-1H-pyrazol-3-yl)-1H-imidazol-2-yl)methyl)-4-chloroaniline hydrochloride [Compound 14]”, the IC50 in assay [1] was greater than 10000 nM.
For the molecule `N#Cc1ccc(-c2nc(-c3ccn(C(F)F)n3)c(-c3ccc4ncsc4c3)[nH]2)cc1` [Compound 60], the IC50 at TGFBR1 (ALK5) (setting [3]) turned out to be 71.7 nM.
As to `CC(C)n1ccc(-c2nc(CNc3cc(F)cc(F)c3)[nH]c2-c2ccc3nccnc3c2)n1` [Compound 39], the IC50 in assay [1] (Homo sapiens, HEK-293T) stood at 53.6 nM.
As for `CC(C)n1ccc(-c2nc(CNc3ccc(Cl)c(F)c3)[nH]c2-c2ccc3nccnc3c2)n1` [Compound 49], the IC50 at TGFBR1 (ALK5) (setting [2]) was less than 1000 nM.
